Data published in patent publication US12611438B2, “Antiviral composition comprising a nucleolin-binding peptide” (ANYGEN CO., LTD., priority 2021, dated 2026).
pIC50: −log10 of the molar value.

Key:
SARS-COV-2 = settings: 24 h
[1] = MTT cytotoxicity assay, Vero cells; settings: African green monkey

## CC[C@H](C)[C@H](NC(=O)[C@H](CCCNC(=N)N)NC(=O)[C@H](CC(C)C)NC(=O)[C@@H](NC(=O)[C@H](CCCNC(=N)N)NC(=O)[C@H](CCSC)NC(=O)[C@@H](NC(=O)[C@@H](N)CCCNC(=N)N)[C@@H](C)CC)[C@@H](C)CC)C(=O)N[C@@H](CC(C)C)C(=O)N[C@@H](CCCCN)C(=O)N[C@@H](CC(C)C)C(=O)N[C@@H](C)C(=O)N[C@@H](CCCNC(=N)N)C(=O)NCCCC[C@H](NC(=O)[C@H](CCCNC(=N)N)NC(=O)[C@H](C)NC(=O)[C@H](CC(C)C)NC(=O)[C@H](CCCCN)NC(=O)[C@H](CC(C)C)NC(=O)[C@@H](NC(=O)[C@H](CCCNC(=N)N)NC(=O)[C@H](CC(C)C)NC(=O)[C@@H](NC(=O)[C@H](CCCNC(=N)N)NC(=O)[C@H](CCSC)NC(=O)[C@@H](NC(=O)[C@@H](N)CCCNC(=N)N)[C@@H](C)CC)[C@@H](C)CC)[C@@H](C)CC)C(=O)N[C@@H](CSSC[C@H](NC(=O)[C@H](CCCCNC(=O)CCOCCOCCOCCOCCOCCOCCNC(=O)[C@H](CCCCN)NC(=O)[C@H](CC(C)C)NC(=O)[C@H](Cc1ccc(O)cc1)NC(=O)[C@@H](NC(=O)[C@H](CCSC)NC(=O)[C@H](C)NC(=O)CNC(=O)[C@H](Cc1c[nH]cn1)NC(=O)[C@@H](N)CCCNC(=N)N)C(C)C)NC(=O)CCOCCOCCOCCOCCOCCOCCNC(=O)[C@H](CCCCN)NC(=O)[C@H](CC(C)C)NC(=O)[C@H](Cc1ccc(O)cc1)NC(=O)[C@@H](NC(=O)[C@H](CCSC)NC(=O)[C@H](C)NC(=O)CNC(=O)[C@H](Cc1c[nH]cn1)NC(=O)[C@@H](N)CCCNC(=N)N)C(C)C)C(=O)O)C(=O)O [AGM-330d-dCPP]
SARS-COV-2
  pIC50: 5.28
[1]
  CC50 at 24 h: 7.73 µM
